Columns and labels:
Experiment in all cases: Test C preemergence
Assay type in all cases: in vivo
Sunflower = details: scale 0 to 100, 0 no effect, 100 complete control
[1] = tested on: goosegrass (Eleusine indica); details: for Plant response rating, Goosegrass: scale 0 to 100, 0 no effect, 100 complete control; for Plant response rating (0 to 100), Goosegrass: visual evaluation after 12 to 14 days
Excerpt: (§1) Seeds of plant species selected from bermudagrass (Cynodon dactylon), Surinam grass (Brachiaria decumbens), cocklebur (Xanthium strumarium), corn (Zea mays), crabgrass (Digitaria sanguinalis), woolly cupgrass (Eriochloa villosa), giant foxtail (Setaria faberii), goosegrass (Eleusine indica), johnsongrass (Sorghum halepense), kochia (Kochia scoparia), lambsquarters (Chenopodium album), morningglory (Ipomoea hederacea), yellow nutsedge (Cyperus esculentus), pigweed (Amaranthus retroflexus), common ragweed (Ambrosia elatior), soybean (Glycine max) and velvetleaf (Abutilon theophrasti) were planted and treated preemergence with test chemicals formulated in a non-phytotoxic solvent mixture which included a surfactant.
(§2) At the same time, plants selected from these crop and weed species and also winter barley (Hordeum vulgare), blackgrass (Alopecurus myosuroides), canary grass (Phalaris minor), chickweed (Stellaria media), downy brome (Bromus tectorum), green foxtail (Setaria viridis), Italian ryegrass (Lolium multiflorum), wheat (Triticum aestivum), wild oat (Avena fatua) and windgrass (Apera spica-venti) were treated with postemergence applications of some of the test chemicals formulated in the same manner. Plants ranged in height from 2 to 18 cm (1- to 4-leaf stage) for postemergence treatments. Plant species in the flooded paddy test consisted of rice (Oryza saliva), smallflower flatsedge (Cyperus difformis), duck salad (Heteranthera limosa) and barnyardgrass (Echinochloa crus-galli) grown to the 2-leaf stage for testing. Treated plants and controls were maintained in a greenhouse for 12 to 14 days, after which time all species were compared to controls and visually evaluated. Plant response ratings, summarized in Table C, are based on a scale of 0 to 100 where 0 is no effect and 100 is complete control. A dash (-) response means no test result.

[2] = tested on: common ragweed (Ambrosia elatior); details: preemergence; for Plant response rating, Ragweed, Common: scale 0 to 100, 0 no effect, 100 complete control
Excerpt: as §1, §2

corn (Zea mays) = details: for Plant response rating, Corn: scale 0 to 100, 0 no effect, 100 complete control; for Plant response rating (0 to 100), Corn: visual evaluation after 12 to 14 days
Excerpt: as §1, §2

[3] = tested on: woolly cupgrass (Eriochloa villosa); details: for Plant response rating, Cupgrass, Woolly: scale 0 to 100, 0 no effect, 100 complete control; for Plant response rating (0 to 100), Cupgrass, Woolly: visual evaluation after 12 to 14 days
Excerpt: as §1, §2

[4] = tested on: giant foxtail (Setaria faberii); details: for Plant response rating, Foxtail, Giant: scale 0 to 100, 0 no effect, 100 complete control; for Plant response rating (0 to 100), Foxtail, Giant: visual evaluation after 12 to 14 days
Excerpt: as §1, §2

[5] = tested on: cocklebur (Xanthium strumarium); details: for Plant response rating, Cocklebur: scale 0 to 100, 0 no effect, 100 complete control; for Plant response rating (0 to 100), Cocklebur: visual evaluation after 12 to 14 days
Excerpt: as §1, §2

[6] = tested on: velvetleaf (Abutilon theophrasti); details: preemergence; for Plant response rating, Velvetleaf: scale 0 to 100, 0 no effect, 100 complete control
Excerpt: as §1, §2

kochia (Kochia scoparia) = details: for Plant response rating, Kochia: scale 0 to 100, 0 no effect, 100 complete control; for Plant response rating (0 to 100), Kochia: visual evaluation after 12 to 14 days
Excerpt: as §1, §2

[7] = tested on: johnsongrass (Sorghum halepense); details: for Plant response rating, Johnsongrass: scale 0 to 100, 0 no effect, 100 complete control; for Plant response rating (0 to 100), Johnsongrass: visual evaluation after 12 to 14 days
Excerpt: as §1, §2

[8] = tested on: yellow nutsedge (Cyperus esculentus); details: for Plant response rating, Nutsedge: scale 0 to 100, 0 no effect, 100 complete control
Excerpt: as §1, §2

[9] = tested on: crabgrass (Digitaria sanguinalis); details: for Plant response rating, Crabgrass: scale 0 to 100, 0 no effect, 100 complete control; for Plant response rating (0 to 100), Crabgrass: visual evaluation after 12 to 14 days
Excerpt: as §1, §2

soybean (Glycine max) = details: preemergence; for Plant response rating, Soybean: scale 0 to 100, 0 no effect, 100 complete control
Excerpt: as §1, §2

Nightshade = details: scale 0 to 100, 0 no effect, 100 complete control
Excerpt: as §1, §2

[10] = tested on: morningglory (Ipomoea hederacea); details: for Plant response rating, Morningglory: scale 0 to 100, 0 no effect, 100 complete control
Excerpt: as §1, §2

[11] = tested on: Surinam grass (Brachiaria decumbens); details: for Plant response rating, Surinam grass: scale 0 to 100, 0 no effect, 100 complete control; for Plant response rating (0 to 100), Surinam grass: visual evaluation after 12 to 14 days
Excerpt: as §1, §2

[12] = tested on: bermudagrass (Cynodon dactylon); details: for Plant response rating, Bermudagrass: scale 0 to 100, 0 no effect, 100 complete control; for Plant response rating (0 to 100 where 0 is no effect and 100 is complete control), Bermudagrass: visual evaluation after 12 to 14 days
Excerpt: as §1, §2

[13] = tested on: pigweed (Amaranthus retroflexus); details: preemergence; for Plant response rating, Pigweed: scale 0 to 100, 0 no effect, 100 complete control
Excerpt: as §1, §2

[14] = Rate 500 g/ha, visual evaluation after 12 to 14 days
[15] = preemergence, Rate 500 g/ha, visual evaluation after 12 to 14 days

## COc1cc(OC)cc(N2CCC(n3ccc(C(C)(C)C)n3)C2=O)c1 (centres unmarked) [Compound 71]
Sunflower; Rate 125 g/ha
  Plant response rating, Sunflower: 0
Sunflower; Rate 250 g/ha
  Plant response rating, Sunflower: 0
[1]; Rate 62 g/ha
  Plant response rating, Goosegrass: 30
[1]; preemergence, Rate 250 g/ha
  Plant response rating (0 to 100), Goosegrass: 100
[1]; preemergence, Rate 500 g/ha
  Plant response rating (0 to 100), Goosegrass: 100
[1]; preemergence, Rate 125 g/ha
  Plant response rating, Goosegrass: 90
[2]; [14]
  Plant response rating (0 to 100), Ragweed, Common: 30
[2]; Rate 125 g/ha
  Plant response rating, Ragweed, Common: 0
[2]; Rate 250 g/ha
  Plant response rating, Ragweed, Common: 0
Corn (Zea mays); Rate 62 g/ha
  Plant response rating, Corn: 0
Corn (Zea mays); preemergence, Rate 250 g/ha
  Plant response rating (0 to 100), Corn: 0
Corn (Zea mays); preemergence, Rate 500 g/ha
  Plant response rating (0 to 100), Corn: 30
Corn (Zea mays); preemergence, Rate 125 g/ha
  Plant response rating, Corn: 0
[3]; Rate 62 g/ha
  Plant response rating, Cupgrass, Woolly: 0
[3]; preemergence, Rate 250 g/ha
  Plant response rating (0 to 100), Cupgrass, Woolly: 100
[3]; preemergence, Rate 500 g/ha
  Plant response rating (0 to 100), Cupgrass, Woolly: 100
[3]; preemergence, Rate 125 g/ha
  Plant response rating, Cupgrass, Woolly: 80
[4]; Rate 62 g/ha
  Plant response rating, Foxtail, Giant: 0
[4]; preemergence, Rate 250 g/ha
  Plant response rating (0 to 100), Foxtail, Giant: 0
[4]; preemergence, Rate 500 g/ha
  Plant response rating (0 to 100), Foxtail, Giant: 100
[4]; preemergence, Rate 125 g/ha
  Plant response rating, Foxtail, Giant: 90
[5]; Rate 62 g/ha
  Plant response rating, Cocklebur: 0
[5]; preemergence, Rate 250 g/ha
  Plant response rating (0 to 100), Cocklebur: 30
[5]; preemergence, Rate 500 g/ha
  Plant response rating (0 to 100), Cocklebur: 30
[5]; preemergence, Rate 125 g/ha
  Plant response rating, Cocklebur: 0
[6]; [14]
  Plant response rating (0 to 100), Velvetleaf: 0
[6]; Rate 125 g/ha
  Plant response rating, Velvetleaf: 0
[6]; Rate 250 g/ha
  Plant response rating, Velvetleaf: 0
Kochia (Kochia scoparia); Rate 62 g/ha
  Plant response rating, Kochia: 80
Kochia (Kochia scoparia); preemergence, Rate 250 g/ha
  Plant response rating (0 to 100), Kochia: 100
Kochia (Kochia scoparia); preemergence, Rate 500 g/ha
  Plant response rating (0 to 100), Kochia: 100
Kochia (Kochia scoparia); preemergence, Rate 125 g/ha
  Plant response rating, Kochia: 90
[7]; Rate 62 g/ha
  Plant response rating, Johnsongrass: 0
[7]; preemergence, Rate 250 g/ha
  Plant response rating (0 to 100), Johnsongrass: 0
[7]; preemergence, Rate 500 g/ha
  Plant response rating (0 to 100), Johnsongrass: 40
[7]; preemergence, Rate 125 g/ha
  Plant response rating, Johnsongrass: 0
[8]; Rate 62 g/ha
  Plant response rating, Nutsedge: 0
[8]; [15]
  Plant response rating (0 to 100), Nutsedge: 70
[8]; preemergence, Rate 125 g/ha
  Plant response rating, Nutsedge: 30
[8]; preemergence, Rate 250 g/ha
  Plant response rating, Nutsedge: 70
[9]; Rate 62 g/ha
  Plant response rating, Crabgrass: 40
[9]; preemergence, Rate 250 g/ha
  Plant response rating (0 to 100), Crabgrass: 100
[9]; preemergence, Rate 500 g/ha
  Plant response rating (0 to 100), Crabgrass: 100
[9]; preemergence, Rate 125 g/ha
  Plant response rating, Crabgrass: 100
Soybean (Glycine max); [14]
  Plant response rating (0 to 100), Soybean: 0
Soybean (Glycine max); Rate 125 g/ha
  Plant response rating, Soybean: 0
Soybean (Glycine max); Rate 250 g/ha
  Plant response rating, Soybean: 0
Nightshade; Rate 62 g/ha
  Plant response rating, Nightshade: 0
Nightshade; Rate 125 g/ha
  Plant response rating, Nightshade: 20
Nightshade; Rate 250 g/ha
  Plant response rating, Nightshade: 30
[10]; Rate 62 g/ha
  Plant response rating, Morningglory: 0
[10]; [15]
  Plant response rating (0 to 100), Morningglory: 0
[10]; preemergence, Rate 125 g/ha
  Plant response rating, Morningglory: 0
[10]; preemergence, Rate 250 g/ha
  Plant response rating, Morningglory: 0
[11]; Rate 62 g/ha
  Plant response rating, Surinam grass: 30
[11]; preemergence, Rate 250 g/ha
  Plant response rating (0 to 100), Surinam grass: 50
[11]; preemergence, Rate 500 g/ha
  Plant response rating (0 to 100), Surinam grass: 90
[11]; preemergence, Rate 125 g/ha
  Plant response rating, Surinam grass: 30
[12]; Rate 62 g/ha
  Plant response rating, Bermudagrass: 30
[12]; preemergence, Rate 250 g/ha
  Plant response rating (0 to 100 where 0 is no effect and 100 is complete control), Bermudagrass: 100
[12]; preemergence, Rate 500 g/ha
  Plant response rating (0 to 100 where 0 is no effect and 100 is complete control), Bermudagrass: 100
[12]; preemergence, Rate 125 g/ha
  Plant response rating, Bermudagrass: 90
[13]; [14]
  Plant response rating (0 to 100), Pigweed: 100
[13]; Rate 125 g/ha
  Plant response rating, Pigweed: 0
[13]; Rate 250 g/ha
  Plant response rating, Pigweed: 100

— patent publication US7138361B2, “Herbicidal heterocycles” (E. I. du Pont de Nemours and Company, priority 2000, dated 2006)
